Reference: US5514662A, “Use of amphotericin B derivatives as protease inhibitors” (priority 1991, dated 1996)
Read-outs that look alike come from different tables or passages of the source.

Legend:
[1] = system: HIV; assay: Viral expression in reactivated infected CD4 cells from patients (p24 ELISA); type: cell-based; conditions: Human immunodeficiency virus 1, 240 h, 7 patients tested
Excerpt: The activation of infected CD4+cells is known to stimulate the production of the virus. The effect of DABF-AmB was therefore tested on the vital expression in cells from AIDS patients reactivated in vitro by anti-CD3, by anti-CD28, by PMA (phorbol myristate acetate) or by soluble anti-CD3.
PBMCs from patients (<300 CD4) were isolated on a Ficoll gradient using blood. The CD4 cells were isolated by cell sorting using a flow cytometer (FACS-Star, Becton-Dickinson, Mountain View, Calif.) after OKT4-FITC labelling. The CD4 cells were washed again and then re-inoculated as indicated in 5 and activated either with anti-CD3 or anti-CD28 antibodies or with PMA. Viral expression was evaluated after 10 days by ELISA assay of p24 in the supernatants.

[2] = target: protease p10 (Human immunodeficiency virus type 1 (BRU ISOLATE), UniProt P03367); assay: Activity on recombinant protease p10; type: biochemical; conditions: 1 μM for DABF-AmB
Experimental: (§1) DABF-AmB was tested, at a concentration of 1 μM, on various proteases (papain, chymotrypsin, kallicrein, leucocyte elastase, cathopsin D and recombinant protease p10) under conditions and in the presence of substrates appropriate for each of the proteases tested.

[3] = system: LAV/BRU strain of HIV-1; assay: Reverse transcriptase activity in supernatants of HIV-1 infected Jurkat and CEM cells; type: cell-based
Experimental: The T cells (Jurkat and CEM) used are very permissive to HIV infection. They are cultured in RPMI 1640 medium supplemented with 10% foetal calf serum, 2 mM of glutamine and a mixture of penicillin and streptomycin. The peripheral blood mononuclear cells are obtained from blood from healthy donors, isolated on a Ficoll Hypaque gradient and stimulated with 10 μg/ml of phytohaemagglutinin A (PHA), for two days, in RPMI 1640 medium supplemented, prior to the infection by HIV, with amikacin and vancomycin (10 mg/ml), polybrene (1 mg/ml) and anti-interferon gamma serum (5 U/ml). After infection, the PBMCs are cultured (10^5 per well) in flat-bottomed 96-well plates in the same RPMI 1640 medium (200 μl per well).
Infectious preparations of the LAV/Bru strain of HIV-1 are obtained from chronically infected CEM cell (clone 13) culture supernatants filtered through a 0.45-μm filter.
(§2) For the infection, fresh Jurkat or CEM type cells are centrifuged and the pellet is incubated for 2 hours at 37° C. with the viral preparation (10000 cpm of reverse transcriptase activity/10^6 cells, which corresponds to a multiplicity of infection of 0.04 to 0.1). The cells are then washed and resuspended (0.5×10^6/ ml) in fresh culture medium. Reverse transcriptase activity is determined at specific times after the infection, using the acellular infected cell supernatant.
The reverse transcriptase activity is determined at the indicated times using the culture supernatant, according to the procedure described by REY et al., Biochem. Res. Comm. 121, 126-133 (1984).
The Jurkat and CEM type T cells are infected with the LAV/BRU strain of HIV-1.
Viral infection and replication are monitored by measuring the reverse transcriptase activity in the culture supernatants.
To measure the anti-HIV activity of DABF-AmB, infected cells are cultured in the presence of increasing doses (between 0.1 μM and 100 μM) of the product; […] kept constant during the infection by carrying out a one half dilution, every 3 days, of the growing cells in fresh medium containing the desired concentration.
The corresponding results are illustrated in FIGS. 3b and 3d: the reverse transcriptase activity measured on the 8th day of the viral infection is represented on the y axis and the DABF-AmB concentration on the x axis.

[4] = system: CD3; assay: Membrane antigen CD3 in HIV-1 infected cells; type: cell-based, human; conditions: treated or untreated infected cells
Experimental: Immunofluorescence analyses are carried out on the 8th day of the infection in order to verify whether the inhibition of HIV replication by DABF-AmB results in 10 a reduced membrane expression of viral antigens.

[5] = system: CEM cells; assay: Cell viability of CEM cells; type: cell-based, human; conditions: concentrations above 100 μM
Excerpt: Cell viability was estimated at the same time. […] It therefore appears that DABF-AmB inhibits the replication of HIV at doses which are not cytotoxic.

[6] = system: HIV2-rod; assay: Formation of syncytia in HUT78 cells infected with HIV2-rod; type: cell-based, HIV-2
Experimental: HUT78 cells were inoculated in 96-well plates in an amount of 2×10^4 cells per well, in […]. They were infected with various viral concentrations and DABF-AmB was added immediately after the infection, at various concentrations. The formation of syncytia was evaluated after 3 and 5 days by direct reading under an inverted microscope (semi-quantitative test).

[7] = target: T1, trypsin (Bos taurus, UniProt P00760); assay: Inhibition of trypsin; type: biochemical
T1 sequence (P00760 24-246): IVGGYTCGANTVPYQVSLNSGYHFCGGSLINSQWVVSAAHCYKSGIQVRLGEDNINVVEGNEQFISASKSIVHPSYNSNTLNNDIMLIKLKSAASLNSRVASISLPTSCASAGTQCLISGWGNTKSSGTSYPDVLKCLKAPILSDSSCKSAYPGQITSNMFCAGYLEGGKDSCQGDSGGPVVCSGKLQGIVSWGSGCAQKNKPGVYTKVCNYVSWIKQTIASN

[8] = system: viral antigen p24; assay: Expression of soluble viral antigen p24 in HIV-1 infected Jurkat and CEM cells; type: cell-based
Experimental: as §2
The viral antigen p24 was quantified in the infected-cell supernatant by radioimmunological assay using the procedure recommended by the manufacturer (ABBOTT, Diagnostics Division).
The expression of the soluble viral antigen p24 was investigated at the same time as the reverse transcriptase activity, in the cell culture supernatants.
The AmB treatment is carried out under the same conditions as the DABF-AmB treatment.
In another experiment, 10 μM of DABF-AmB are added either during pretreatment 24 hours before the infection, or alternatively during the 2-hour inoculation stage, or alternatively during continuous treatment, as described above, for 12 days following the infection.

[9] = system: cathopsin D; assay: Activity of DABF-AmB on various proteases: cathopsin D; type: biochemical; conditions: 1 μM
Experimental: as §1

[10] = 10 μM added during the 2-hour inoculation stage
[11] = 10 μM added prior to infection (24 hours pretreatment)

## C[C@@H]1[C@H](O)[C@@H](C)/C=C/C=C/C=C/C=C/C=C/C=C/C=C/[C@H](O[C@@H]2O[C@H](C)[C@@H](O)[C@H](NCC(=O)[C@@H](O)[C@@H]3OC(c4ccccc4)OC[C@H]3O)[C@@H]2O)C[C@@H]2O[C@](O)(C[C@@H](O)C[C@@H](O)[C@H](O)CC[C@@H](O)C[C@@H](O)CC(=O)O[C@H]1C)C[C@H](O)[C@H]2C(=O)O (stereo partly drawn) [DABF-AmB, 1-deoxy-1-amino-4,6-O-benzylidene-D-fructosyl-AmB]
[1]
  inhibition at 10 µM: > 90%
[2]
  inhibition of protease p10: does not inhibit
[3]; [10]
  inhibition of reverse transcriptase activity: does not bring about any significant inhibition
[3]; [11]
  inhibition of reverse transcriptase activity: does not bring about any significant inhibition
[3]; Human immunodeficiency virus 1, 192 h, Jurkat and CEM cells, 10 μM, 8th day, N=4
  inhibition at 10 µM: 88%
[3]; Human immunodeficiency virus 1, 192 h, Jurkat and CEM cells, 8th day, read-out: concentration from which inhibition of reverse transcriptase activity is observed
  minimal effective concentration: ≥ 5 µM
[3]; Jurkat and CEM cells, concentrations below 1 μM
  inhibition of reverse transcriptase activity (in words): No significant inhibition
[4]
  level of the membrane antigen CD3: unchanged
[5]
  cytotoxic effect: no cytotoxic effect
[6]; 5 μM, 10 TCID50, 3 days
  formation of syncytia: - and +
[6]; 5 μM, 10 TCID50, 5 days
  formation of syncytia: - and +
[6]; 5 μM, 100 TCID50, 3 days
  formation of syncytia: +
[6]; 10 μM, 10 TCID50, 3 days
  formation of syncytia: -
[6]; 10 μM, 10 TCID50, 5 days
  formation of syncytia: -
[6]; 10 μM, 100 TCID50, 3 days
  formation of syncytia: + and -
[6]; 50 μM, 10 TCID50, 5 days
  formation of syncytia: -
[6]; 50 μM, 100 TCID50, 3 days
  formation of syncytia: -
[6]; 50 μM, 100 TCID50, 5 days
  formation of syncytia: -
[6]; 100 μM, 100 TCID50, 3 days
  formation of syncytia: -
[6]; 100 μM, 100 TCID50, 5 days
  formation of syncytia: -
[6]; HUT78, HIV-2
  inhibition of formation of syncytia (in words): in a dose-dependent manner
[7]; 1 μM, FIG. 1, read-out: % inhibition of trypsin relative to a control without inhibitor
  inhibition at 1 µM: > 60%
[7]; 10^-4 M
  inhibition at 100 µM: 100%
  inhibition of trypsin (in words): Total inhibition
[7]; 10^-5 M
  inhibition at 10 µM: 95%
[7]; 10^-6 M, read-out: % of inhibition of trypsin
  inhibition at 1 µM: 50%
[7]; 10^-7 M
  inhibition at 0.1 µM: 20%
[8]; [10]
  inhibition of p24 secretion: does not bring about any significant inhibition
[8]; [11]
  inhibition of p24 secretion: does not bring about any significant inhibition
[8]; Human immunodeficiency virus 1, 288 h, read-out: concentration for significant inhibition of p24
  minimal effective concentration: > 5 µM
[8]; p24, 10 μM, 4 and 8 days
  efficacy on the multiplication of HIV compared with AmB: substantially greater than that of AmB
[9]
  inhibition of cathopsin D: does not inhibit
